These results are taken from US11857535B2, “Methods of treating mutant lymphomas” (Kymera Therapeutics, Inc., priority 2020, dated 2024).

Like-named read-outs stand apart in the source and are kept apart here. Bounds are passed on as bounds.

For data set [1], the target named is T1, IRAK4 (Homo sapiens, UniProt Q9NWZ3).
T1 construct: endogenous in cells; host or cells: OCI-Ly10
T1 sequence (Q9NWZ3 1-460): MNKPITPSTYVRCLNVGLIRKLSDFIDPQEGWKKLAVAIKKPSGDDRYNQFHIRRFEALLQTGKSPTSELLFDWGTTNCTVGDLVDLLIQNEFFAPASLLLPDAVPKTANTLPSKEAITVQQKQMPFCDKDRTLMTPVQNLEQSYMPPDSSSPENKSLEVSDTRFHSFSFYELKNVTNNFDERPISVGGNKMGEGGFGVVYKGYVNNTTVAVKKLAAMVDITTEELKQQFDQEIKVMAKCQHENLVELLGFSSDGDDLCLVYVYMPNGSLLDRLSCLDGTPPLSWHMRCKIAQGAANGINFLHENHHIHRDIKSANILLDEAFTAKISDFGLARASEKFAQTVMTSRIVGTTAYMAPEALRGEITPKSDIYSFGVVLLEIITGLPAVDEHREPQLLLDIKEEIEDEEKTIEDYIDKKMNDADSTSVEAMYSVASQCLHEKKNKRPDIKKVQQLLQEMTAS
The data set is described as follows: IRAK4 degradation in OCI-LY10 xenograft tumors (UPLC-MS/MS, tumor PD). The format is in vivo. To be noted: for IRAK4 (% Deg): tumor PD, after 5d dosing. On the procedure:
(§1) At termination: At pre-determined time points based on study design, animals were humanely sacrificed by CO2. Blood was obtained by cardiac puncture for isolation of plasma, any residual tumor was removed and divided in 2 portions, 1 (minimal) for terminal compound exposure and 1 to determine IRAK4 and actin. Compound was determined in tumor and plasma using LC/MS with calibrated standards.
Interleukin-1 receptor-associated kinase 4 (IRAK4) was quantified in human OCI-LY10 xenograft tumors, together with mouse splenocytes and peripheral blood mononuclear cells (PBMCs), by ultra-performance liquid chromatography-tandem mass spectrometry (UPLC-MS/MS). The concentrations of IRAK4 were normalized by the concentrations of actin in the respective samples. The tumors, splenocytes and PBMCs were lysed in tissue protein extraction reagent (T-PER, ThermoFisher). The samples were centrifuged at 10,000 rpm for 10 minutes. The supernatant (cell lysate) was transferred to another tube. The cell lysates were denatured, reduced, and alkylated with iodoacetamide. The alkylated samples were treated with trypsin to generate the IRAK4 peptide LAVAIK and the actin peptide GYSFTTTAER. These peptides are unique and specific to IRAK4 and actin, respectively, in human, rat and mouse cells and tissues due to sequence conservation between these species.
Signature peptide concentrations were quantitated using a sensitive and specific targeted LC-MS/MS method. Corresponding mass-shifted, stable isotope-labeled peptides (LAV(d8)AIK and GYSF(d8)TTTAE(d6)R) were used as internal standards (ISs). Calibration standards and were prepared fresh on the day of analysis by diluting synthetic LAVAIK and […] peptides into 0.1% formic acid in 90/10 water acetonitrile (v/v). The standards and study samples) were aliquoted into a 96-well plate and mixed with IS spiking solution. The sample plate was covered with heating foil.
Signature peptide levels (LAVAIK, GYSFTTTAER) were quantified by UPLC-MS/MS. Injections were made using a Shimadzu ultra performance liquid chromatograph (UPLC) platform. Mobile phase A was 0.1% formic acid in water. Mobile phase B was 0.1% formic acid in 90:10 acetonitrile/water (v/v). A SCIEX TripleTOF 6600 LC-MS/MS system was used for the detection and quantitation of analytes. The intensities of the analytes and ISs were determined by integration of extracted ion peak areas using Analyst and MultiQuant 3.0 software. Calibration curves were prepared by plotting the analyte to IS peak area ratio vs. concentration. The model for the calibration curves was linear with 1/x^2 weighting. […] Measured peptide levels were corrected for sample work up and converted to actual protein concentrations in ng/mg total protein of cell lysate. […]

Data set [2] is described as follows: Compound exposure (PK) in plasma, spleen and tumor of OCI-Ly10 xenograph mice. The format is in vivo, mouse. On the procedure: as §1
Data set [3] has as its target T1, IRAK4. The data set is described as follows: Deep proteomics / degradation time course in OCI-Ly10 (FIG. 8). In kind it is cell-based. The settings on record: OCI-Ly10, between 16-24 h post treatment. An excerpt: FIG. 8 depicts deep proteomics scatterplots showing degradation of IRAK4 and IMiD substrates in OCI-Ly10 using Compound A. Type 1 IFN signaling was activated in OCI-Ly10 MYD88^MT DLBCL.

[4] abbreviates: C.B. 17 SCID, mouse, plasma, 10 mg/kg, 10 mpk PO.

By AUC(0-t) is commonly meant the area under the concentration-time curve up to a stated or last time point. Lower therefore signals low exposure. As usually defined, the Cmax is the peak of the concentration-time curve. The term Tmax denotes the time at which the peak concentration occurs. By half-life is commonly meant the time in which the quantity being followed falls by half. A higher half-life goes with slow decline. In the case of `CC(C)(O)c1cc2nc([C@H]3CC[C@H](CN4CC5(CC(CCNc6cccc7c6C(=O)N(C6CCC(=O)NC6=O)C7=O)C5)C4)CC3)sc2cc1NC(=O)c1cccc(C(F)(F)F)n1` (stereo partly shown) [Compound A, N-(2-((1r,4r)-4-((6-(2-((2-(2,6-dioxopiperidin-3-yl)-1,3-dioxoisoindolin-4-yl)amino)ethyl)-2-azaspiro[3.3]heptan-2-yl)methyl)cyclohexyl)-5-(2-hydroxypropan-2-yl)benzo[d]thiazol-6-yl)-6-(trifluoromethyl)picolinamide], in data set [1] (following a single dose, FIG. 4), the “tumor PD effect” value is reported as “sustained PD effect”. Moreover, the “IRAK4 (% Deg)” value in data set [1] (3 mpk) is listed as 16%; in data set [1] (10 mpk), 75%; in data set [1] (30 mpk) it was 83%. Besides, in data set [2] (10 mpk PO), the F is given as 19.0%. In data set [2] (setting [4]), the AUC(0-t) amounted to 2.83 µM·h. In data set [2] (setting [4]), this molecule showed a Cmax of 180 nM. The Tmax in data set [2] (setting [4]) was 8 h. The molecule also had a half-life in data set [2] (setting [4]) of 561 min. Further, the concentration at 24 h in data set [2] (C.B. 17 SCID, mouse, plasma, 3 mpk, after 5d dosing, read-out: Plasma C24 h) is 10 nM; in data set [2] (C.B. 17 SCID, mouse, plasma, 10 mpk PO, read-out: C24 h) it was 55 nM; in data set [2] (C.B. 17 SCID, mouse, plasma, 10 mpk, after 5d dosing, read-out: Plasma C24 h), 80 nM; in data set [2] (C.B. 17 SCID, mouse, plasma, 30 mpk, after 5d dosing, read-out: Plasma C24 h), 640 nM; in data set [2] (C.B. 17 SCID, mouse, plasma, based on either a 3 mpk or 10 mpk dose, read-out: Target exposure for efficacy in OCI-Ly10: steady state C24h), 10 to 80 nM; in data set [2] (C.B. 17 SCID, mouse, spleen, 3 mpk, after 5d dosing, read-out: Spleen C24 h), 500 nM. Further, the concentration at 24 h came out at 4100 nM in data set [2] (C.B. 17 SCID, mouse, spleen, 10 mpk, after 5d dosing, read-out: Spleen C24 h); 59000 nM in data set [2] (C.B. 17 SCID, mouse, spleen, 30 mpk, after 5d dosing, read-out: Spleen C24 h); 430 nM in data set [2] (C.B. 17 SCID, mouse, tumor, 3 mpk, after 5d dosing, read-out: Tumor C24 h); 4200 nM in data set [2] (C.B. 17 SCID, mouse, tumor, 10 mpk, after 5d dosing, read-out: Tumor C24 h); 64000 nM in data set [2] (C.B. 17 SCID, mouse, tumor, 30 mpk, after 5d dosing, read-out: Tumor C24 h). The “tissue exposure relative to plasma” value in data set [2] (single dose, FIG. 4) was “high tissue exposure relative to plasma”. In data set [3], the “degradation of IRAK4 (time course)” value is recorded as more than 80%.
